Assay [1] concerns MAPK: ERK-1 (p44) and ERK-2 (p42). Kind of assay: Estrogen-induced MAPK phosphorylation, Western blot in MCF-7 cells. The format is cell-based, human. Conditions: MCF-7 parent cells, 1 nM estradiol (E2); antagonists pre-incubated at 1000 nM; FIG. 7A. As for the experimental part:
ERD inhibition of phosphorylation of MAPK, at both extracellular signal-regulated kinases ERK-1 (p44) and ERK-2 (p42) and downstream effects. […] Thus, we measured estrogen-induced phosphorylation of MAPK by established methods (9,15,16). Briefly, MCF-7 parental cells were estrogen deprived for 48 hrs, then treated with 1 nM estradiol-1713 in the presence of new compounds (10 nM-10 μM) to be tested for antagonist activity. After treatments, cell lysates were separated by SDS-PAGE followed by Western blot using a polyclonal antibody directed to phospho-p44/p42 MAP kinase (Thr202/Tyr204) (Cell Signaling). Immunodetection with antibody against total p44/p42 (Cell Signaling) was done as a control for gel loading. […] ERD S15 was as effective as fulvestrant in inhibiting the rapid estrogen-induced MAPK phosphorylation in breast tumor cells in vitro. […] E2 but not vehicle (CN) induced rapid phosphorylation of ERK-1 (p44) and ERK-2 (p42). This activation was prevented when cells were pre-incubated with 1000 nM ICI 182,780 (ICI; Faslodex) or 1000 nM compound S15 in the presence of estradiol (E2).
A general note: In western blotting, separated proteins are transferred to a membrane and probed.

The subject of assay [2] is Tamoxifen-resistant human MCF-7 breast cancer cells. Kind of assay: Endocrine-resistant breast cancer cell proliferation in vitro. Type of assay: cell-based. The settings on record: 72 hrs; 50 nM Palbociclib, 10 nM S128, or both; P<0.001 vs control and 100 nM tamoxifen; FIG. 10. As for the experimental part:
Tamoxifen-resistant human MCF-7 breast cancer cells were treated in vitro with control vehicle (CON), 100 nM tamoxifen (TAM), 50 nM Palbociclib (Pb) or 10 nM S128 or with Palbociclib in combination with S128 (S128+Pb) over 72 hrs. […] (FIG. 10)

The test system of a further assay is cleaved PARP. Kind of assay: PARP cleavage, Western blot in A549 cells. The format is cell-based, human. Conditions: A549 cells, 0.01, 0.1 and 1 μM, 4 hours, 5% DCC-FBS; FIG. 2B. As for the experimental part: FIG. 2B. […] A549 cells were treated in 5% DCC-FBS phenol-red free RPMI1640 with vehicle control (C) or increasing concentrations of JD140 at 0.01, 0.1 and 1 μM or 0.1 μM fulvestrant (F) for 4 hours. Western Blots were performed using anti-cleaved-PARP antibody (Cell Signaling Technology). RPL13A is shown as loading control. The Western blot is representative of 3 independent experiments.
We next assessed the effect of SERD compound 140 on the stimulation of NSCLC cell apoptosis by measurement of PARP cleavage at increasing drug doses (see FIG. 2B).
Gel electrophoresis and immunoblotting: Breast and lung tumor cells were treated in phenol-red free RPMI1640/DMEM with 5% DCC-FBS (26). After selected treatments cells were homogenized in the presence of protease inhibitors using RIPA buffer (Thermo Scientific). All procedures were performed in ice, lysates were centrifuged and protein concentration quantified in the supernatants using a Thermo Scientific® BCA protein assay kit. Approximately 20-60 μg of total protein were heated in the presence of Laemmli sample buffer (Biorad) to 100° C. for 10 min and loaded it on a gradient TGX gel 4-15% (Biorad). Gels were transferred to PVDF membranes for immunoblotting. Membranes were blocked either with 5% milk in Tris Buffer Saline with 0.1% Tween 20 or protein-free blocking solution (Thermo Scientific). […]

The structures appear in SMILES notation.

As to `C[C@]12C[C@H](Oc3ccc(N)cc3)[C@@H]3c4ccc(O)cc4CC[C@H]3[C@@H]1CC[C@@H]2O` [JD105, (8S,9S,11S,13S,14S,17S)-11-(4-aminophenoxy)-13-methyl-7,8,9,11,12,13,14,15,16,17-decahydro-6H-cyclopenta[a]phenanthrene-3,17-diol], the “phosphorylation of MAPK (ERK-1 p44 and ERK-2 p42)” value in assay [1] was “inhibits phosphorylation of MAPK”. As to `C[C@]12C[C@H](Oc3ccc(N)c(C(F)(F)F)c3)[C@@H]3c4ccc(O)cc4CC[C@H]3[C@@H]1CC[C@@H]2O` [JD128, (8S,9S,11S,13S,14S,17S)-11-(4-Amino-3-(trifluoromethyl)phenoxy)-13-methyl-7,8,9,11,12,13,14,15,16,17-decahydro-6H-cyclopenta[a]phenanthrene-3,17-diol], the “endocrine-resistant breast cancer cell proliferation” value in assay [2] is recorded as “significantly different from control”. Regarding `C[C@]12C[C@H](Oc3ccc(NC(=O)CCCCN4CCCCC4)c(F)c3)[C@@H]3c4ccc(O)cc4CC[C@H]3[C@@H]1CC[C@@H]2O` [JD140, N-(4-(((8S,9S,11S,13S,14S,17S)-3,17-Dihydroxy-13-methyl-7,8,9,11,12,13,14,15,16,17-deca-hydro-6H-cyclopenta[a]phenanthren-11-yl)oxy)-2-fluorophenyl)-5-(piperidin-1-yl)pentan-amide], in the assay on cleaved PARP, the PARP cleavage result is reported as “enhanced PARP cleavage”.

The values are drawn from patent publication US10918648B2, “Estrogen receptor modulator combinations” (The Regents of the University of California, priority 2016, dated 2021).
